Reference: US11718628B2, “SREBP inhibitors comprising a 6-membered central ring” (Capulus Therapeutics, LLC, priority 2018, dated 2023)
One block for each compound: values may come before it.

Assays:
SREBP = experiment: Reporter screening assay (SRE-luciferase reporter construct); format: cell-based; settings: Homo sapiens; SREBPv1 reporter cell line HepG2, 24 hours, 0.01 uM to 10 uM; read-out: Reporter Screening IC50 (nM) Activity Range
Procedure: This assay was used to evaluate the effect on transcriptional activity SREBP of the compounds synthesized according to Examples 1-16, 20, and 22, using an SRE-luciferase reporter construct. On day 1, 10,000 cells were seeded in a 96 well (white) plate as per the plate map in Growth media without antibiotics. Cells were incubated at 37° C. for 8 hours. After 8 hours, cells were washed with DPBS for complete removal of FBS. DPBS was completely removed and Growth media was replaced with phenol free treatment medium (90 μl) with different FBS concentrations. The cells were then incubated at 37° C. for 24 hours with varying doses (0.01 uM to 10 uM) of compounds. Then a Luciferase assay was performed.
Reagents for performing Luciferase assay were stored at −20° C. To a tube of lyophilized assay substrate was added 1 mL Substrate Solvent and mixed well. The Substrate tube after reconstitution was covered with aluminum foil so as to keep it protected from light. The assay buffer was thawed to room temperature. To 20 mL Assay Buffer was added 200 μL of reconstituted 100× Substrate and mixed well. The reconstituted substrate as well as the assay solution (buffer+substrate) was protected from light throughout the procedure by keeping it covered with aluminum foil.
Using a multi-channel pipette, 100 μL Assay Solution (buffer+substrate) was added directly to each sample well in Plate 1, which was incubated for 30 min (plate was covered with aluminum foil). After 30 min incubation, the plate was read for total luminescence. Each well was read for 2 seconds in a plate luminometer. (Microplate reader Envision Microplate reader from Perkin Elmer). Precaution was taken to incubate plate exactly for 30 min prior to reading on the plate reader.
Materials: SREBPv1 Reporter cell line: HepG2—#32251. Growth Medium: MEM (Corning 10-010), 10% FBS, 1% GlutaMax (Invitrogen Catalog #35050061), […] (Invitrogen Catalog #A1113803) and 1% Penicillin-Streptomycin (Pen-Strep). Treatment Media: Phenol-free MEM (Invitrogen Catalog #51200-038) and 1% GlutaMax (Invitrogen Catalog #35050061). Luciferase Assay: LightSwitch Luciferase Assay Kit (Catalog #32032). LDH assay: Pierce LDH Cytotoxicity Assay Kit (Catalog #SD249616).

Kinetic solubility = format: physicochemical; settings: pH 7.4 buffer, 24 h, room temperature, 1.0% DMSO
Procedure: Kinetic Solubility Procedure: A 10 mM stock solution of a compound was prepared in DMSO, then 4 μL of the stock was added to a deep well plate containing 396 μL of pH 7.4 buffer. The sample plate was vortexed at 800 rpm for 24 h on thermomixer at room temperature. The plate was sealed well during the incubation process. The DMSO content in the sample was 1.0%. The concentration of the evaluated compound in the final incubation was 100 μM. At the end of the incubation period, the sample plate was centrifuged at 4000 rpm for 10 min and analyzed in LC-UV against a calibration curve (CC). Values <10 μg/mL=Low; 10 to 60 μg/mL=Medium; >60 μg/mL=High.

[1] = Half-life in mouse liver microsomes; format: in vitro ADME
Procedure: (§1) Half-life Human Microsomes: Compounds were evaluated for stability in human liver microsomes. A 10 mM stock solution of the compound being evaluated was prepared in DMSO and diluted with water:acetonitrile (1:1) to a concentration of 1 mM. A working concentration of 100 μM was prepared by further dilution with water:acetonitrile (1:1). To make the preincubation mixture, 2.5 μL of the diluted compound was combined with 75 μL of human liver microsomes at 3.33 mg/mL, and 85 μL of 100 mM potassium phosphate buffer, and this mixture was pre-incubated for 10 min at 37° C. To make the 60 minute mixture without cofactor, 32.5 μL of the preincubation mixture was combined with 17.5 μL of 100 mM potassium phosphate buffer and incubated for 60 min at 37° C. To make the 0 min sample with cofactor (NADPH), 16.25 μL of the preincubation mixture was combined with 200 μL of acetonitrile containing internal standard and 8.75 μL of cofactor (NADPH). To make the incubation mixture, 62 μL of cofactor (2.85 mM) was combined with the remaining incubation mixture, and incubated for 60 min at 37° C. To prepare the sample mixture to be evaluated, 25 μL incubation mixture was combined with 200 μL of acetonitrile containing internal standard and vortexed for 5 min at 1200 rpm, then centrifuged for 10 min at 4000 rpm. The supernatant was diluted 2 fold with water and injected on LC-MS/MS. The sample mixture was evaluated by LC-MS/MS using 10 mM ammonium acetate with 0.1% FA as the aqueous mobile phase, and methanol as the organic mobile phase.
Half-life Mouse Microsomes: Compounds were evaluated in mouse liver microsomes following a similar procedure as described above for human liver microsomes. A similar procedure could be used to evaluate compounds in rat liver microsomes.

[2] = Half-life in human liver microsomes; format: in vitro ADME; settings: NADPH, 37° C.
Procedure: as §1

[3] = In vivo pharmacokinetic properties in mice (IV and PO); set-up: species or system C57BL/6J mice; settings: mice
Procedure: (§2) The in vivo pharmacokinetic properties of compounds by both intravenous and oral administration were evaluated in male Sprague Dawley rats or C57BL/6J mice.
(§3) Animals were housed in cages with clean bedding. Certified rodent diet was provided. Water was available ad libitum. Environmental controls for the animal room were set to maintain a temperature of 22° C. to 25° C., humidity of 40-70% RH, and a 12-hour light/12-hour dark cycle. Normal healthy animals certified by the attending veterinarian were selected and acclimatized for minimum three days prior to initiation of study.
(§4) To evaluate pharmacokinetic properties of intravenous delivery, male Sprague Dawley rats were administered 2.00 mg compound/kg animal weight through the tail vein. The concentration of the compound in the plasma of the animals was evaluated at 0.083, 0.25, 0.5, 1, 2, 4, 8, 12 and 24 hr by taking blood samples from the cannulated jugular vein. For the C5Bl/6J mice, blood samples were collected through a capillary, guided in retro-orbital plexus.
[…] The concentration of compound in the plasma of the animals was evaluated at 0.25, 0.5, 1, 2, 4, 6, 8, 12 and 24 hr by taking blood samples from the cannulated jugular vein (rats) or through a capillary, guided in retro-orbital plexus (mice).

[4] = In vivo pharmacokinetic properties in rats (IV and PO); set-up: species or system male Sprague Dawley rats
Procedure: as §2, §3
Surgical Procedure for Jugular Vein Cannulation of Rats: Rats were anaesthetized with a single dose of ketamine 50 mg/kg i.p.+xylazine 6 mg/kg i.p. The right jugular vein was exposed, a loose ligature was placed caudally, and the cranial end of vein was ligated. A small incision was made between the ligatures into which the catheter (polyethylene 50 tubing of internal diameter 0.58 mm and outer diameter 0.96 mm) was inserted. The catheter was secured in place by tying the loose ligature around the catheterized vessel. A small incision was made in the scapular region to serve as the exit site of the catheter. The catheter was subcutaneously tunneled and exteriorized through scapular incision. A stay suture was placed in the scapular area. Patency was tested, and catheter was filled with a locking solution (heparinized saline) and sealed with a stainless steel plug. The incision was then sutured with sterile suturing material. Anti-septic solution was applied to the sutured site and animal was placed back in the home cage.
as §4
To evaluate pharmacokinetic properties of oral delivery, rats (male Sprague Dawley rats) or mice (C5Bl/6J) were administered 10 mg compound/kg animal weight by mouth. The concentration of compound in the plasma of the animals was evaluated at 0.25, 0.5, 1, 2, 4, 6, 8, 12 and 24 hr by taking blood samples from the cannulated jugular vein (rats) or through a capillary, guided in retro-orbital plexus (mice).

Compound: CC(C)(C)c1cc(-c2cccc(-c3ccc(C(=O)N4CCC(O)CC4)cc3Cl)c2)ccn1 [Compound 5, (3′-(2-(tert-butyl)pyridin-4-yl)-2-chloro-[1,1′-biphenyl]-4-yl)(4-hydroxypiperidin-1-yl)methanone]
IC50 (SREBP): ≤ 100 nM

Compound: CC(C)(C)c1cc(-c2ccnc(-c3ccc(C(=O)N4CCC(O)CC4)cc3Cl)n2)ccn1 [Compound 6, (4-(4-(2-(tert-butyl)pyridin-4-yl)pyrimidin-2-yl)-3-chlorophenyl)(4-hydroxypiperidin-1-yl)methanone]
IC50 (SREBP): ≤ 1000 nM

Compound: CC(C)(C)c1cc(-c2nccc(-c3ccc(C(=O)N4CCC(O)CC4)cc3Cl)n2)ccn1 [Compound 7, (4-(2-(2-(tert-butyl)pyridin-4-yl)pyrimidin-4-yl)-3-chlorophenyl)(4-hydroxypiperidin-1-yl)methanone]
IC50 (SREBP): ≤ 1000 nM

Compound: CC(C)(C)c1cc(-c2cc(-c3ccc(C(=O)N4CCC(O)CC4)cc3Cl)ncn2)ccn1 [Compound 8, (4-(6-(2-(tert-butyl)pyridin-4-yl)pyrimidin-4-yl)-3-chlorophenyl)(4-hydroxypiperidin-1-yl)methanone]
IC50 (SREBP): ≤ 1000 nM

Compound: CC(C)(C)c1cc(-c2cncc(-c3ccc(C(=O)N4CCC(O)CC4)cc3Cl)n2)ccn1 [Compound 9, (4-(6-(2-(tert-butyl)pyridin-4-yl)pyrazin-2-yl)-3-chlorophenyl)(4-hydroxypiperidin-1-yl)methanone]
IC50 (SREBP): ≤ 1000 nM

Compound: COc1ncc(-c2ccnc(C(C)(C)C)c2)cc1-c1ccc(C(=O)N2CCC(O)CC2)cc1Cl [Compound 10, (4-(2′-(tert-butyl)-6-methoxy-[3,4′-bipyridin]-5-yl)-3-chlorophenyl)(4-hydroxypiperidin-1-yl)methanone]
IC50 (SREBP): ≤ 3000 nM

Compound: CC(C)NC(=O)Nc1ccc(-c2cncc(-c3ccnc(C(C)(C)C)c3)c2)c(Cl)c1 [Compound 11, 1-(4-(2′-(tert-butyl)-[3,4′-bipyridin]-5-yl)-3-chlorophenyl)-3-isopropylurea]
IC50 (SREBP): ≤ 1000 nM

Compound: CC(C)(C)c1cc(-c2cncc(-c3ccc(C(=O)N4CCC(O)C(O)C4)cc3Cl)c2)ccn1 (centres unmarked) [drawing 423]
I: kinetic solubility class (Kinetic solubility): MEDIUM (10 to 60 μg/mL=Medium) | H: half-life of mouse liver microsomes [1]: 0.942 h | G: half-life human liver microsomes [2]: 0.357 h

Compound: N-(4-(2′-(tert-butyl)-[3,4′-bipyridin]-5-yl)-3-chlorophenyl)-isopropylsulfamoyl urea [Compound Z-812]
Intravenous Delivery (IV) AUC0-last ([3]; IV, 2 mg/kg): 1150 ng·h/mL | Intravenous Delivery (IV) CL ([3]; IV, 2 mg/kg): 28.6 mL/min/kg | Intravenous Delivery (IV) T1/2 ([3]; IV, 2 mg/kg): 1.12 h | Intravenous Delivery (IV) Vd ([3]; IV, 2 mg/kg): 2.78 L/kg | % F (Bioavailability of oral delivery) ([3]; PO 10 mg/kg vs IV 2 mg/kg): 52% | Oral Administration (PO) AUC0-last ([3]; PO, 10 mg/kg): 3000 ng·h/mL | Oral Administration (PO) T1/2 ([3]; PO, 10 mg/kg): 4.21 h | Oral Administration (PO) Tmax ([3]; PO, 10 mg/kg): 0.25 h | Intravenous Delivery (IV) CL ([4]; IV, 2 mg/kg): 53.5 mL/min/kg | Intravenous Delivery (IV) T1/2 ([4]; IV, 2 mg/kg): 1.87 h | Intravenous Delivery (IV) Vd ([4]; IV, 2 mg/kg): 8.65 L/kg | % F (Bioavailability of oral delivery) ([4]; PO 10 mg/kg vs IV 2 mg/kg): 0.65% | Oral Administration (PO) AUC0-last ([4]; PO, 10 mg/kg): 18 ng·h/mL | Oral Administration (PO) T1/2 ([4]; PO, 10 mg/kg): 1.35 h | Oral Administration (PO) Tmax ([4]; PO, 10 mg/kg): 0.33 h

Other lines, results leading:

IC50 (SREBP): ≤ 1000 nM
Compound: CC(C)(C)c1cc(-c2cc(-c3ccc(C(=O)N4CCC(O)CC4)cc3Cl)ccn2)ccn1 [Compound 1, (4-(2′-(tert-butyl)-[2,4′-bipyridin]-4-yl)-3-chlorophenyl)(4-hydroxypiperidin-1-yl)methanone]

IC50 (SREBP): ≤ 500 nM
Compound: CC(C)(C)c1cc(-c2ccnc(-c3ccc(C(=O)N4CCC(O)CC4)cc3Cl)c2)ccn1 [Compound 2, (4-(2′-(tert-butyl)-[4,4′-bipyridin]-2-yl)-3-chlorophenyl)(4-hydroxypiperidin-1-yl)methanone]

IC50 (SREBP): ≤ 1000 nM
Compound: CC(C)(C)c1cc(-c2cccc(-c3ccc(C(=O)N4CCC(O)CC4)cc3Cl)n2)ccn1 [Compound 3, (4-(2′-(tert-butyl)-[2,4′-bipyridin]-6-yl)-3-chlorophenyl)(4-hydroxypiperidin-1-yl)methanone]

IC50 (SREBP): ≤ 100 nM
Compound: CC(C)(C)c1cc(-c2cncc(-c3ccc(C(=O)N4CCC(O)CC4)cc3Cl)c2)ccn1 [Compound 4, (4-(2′-(tert-butyl)-[3,4′-bipyridin]-5-yl)-3-chlorophenyl)(4-hydroxypiperidin-1-yl)methanone]
